pEC50: −log10 of the molar value.

The target of the test is T1, hSTING (Homo sapiens, UniProt Q86WV6, G230A/H232R/R293Q/R71H).
T1 construct: host or cells: THP1-Dual KO-IFNAR2 cells
T1 sequence (Q86WV6 whole entry R71H/G230A/H232R/R293Q): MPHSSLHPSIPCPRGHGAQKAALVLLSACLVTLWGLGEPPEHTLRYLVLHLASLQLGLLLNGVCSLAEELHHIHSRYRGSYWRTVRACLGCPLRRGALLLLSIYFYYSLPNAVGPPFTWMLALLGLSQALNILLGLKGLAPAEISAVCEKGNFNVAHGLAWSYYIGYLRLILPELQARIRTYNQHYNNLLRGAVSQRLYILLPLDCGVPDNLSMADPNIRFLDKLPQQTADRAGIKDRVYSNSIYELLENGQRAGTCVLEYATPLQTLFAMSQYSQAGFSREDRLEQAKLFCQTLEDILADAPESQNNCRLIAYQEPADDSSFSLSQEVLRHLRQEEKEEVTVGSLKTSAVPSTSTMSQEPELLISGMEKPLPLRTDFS
Nature of the test: STING reporter assay: luciferase reporter activity in THP1-Dual KO-IFNAR2 cells stimulated with 2'3'cGAMP. Type of test: cell-based. The following applies: 15 μM 2'3'cGAMP, 24 h. The protocol:
STING pathway activation by the compounds described herein is measured using THP1-Dual™ cells (KO-IFNAR2).
THP1-Dual™ KO-IFNAR2 Cells (obtained from invivogen) are maintained in RPMI, 10% FCS, 5 ml P/S, 2 mM L-glut, 10 mM Hepes, and 1 mM sodium pyruvate. Compounds are spotted in empty 384 well tissue culture plates (Greiner 781182) by Echo for a final concentration of 0.0017-100 μM. Cells are plated into the TC plates at 40 μL per well, 2×10E6 cells/mL. For activation with STING ligand, 2′3′cGAMP (MW 718.38, obtained from Invivogen), is prepared in Optimem media.
The following solutions are prepared for each 1×384 plate: • Solution A: 2 mL Optimem with one of the following stimuli: • 60 uL of 10 mM 2′3′cGAMP->150 μM stock • Solution B: 2 mL Optimem with 60 μL Lipofectamine 2000->Incubate 5 min at RT
2 mL of solution A and 2 ml Solution B is mixed and incubated for 20 min at room temperature (RT). 20 uL of transfection solution (A+B) is added on top of the plated cells, with a final 2′3′cGAMP concentration of 15 μM. The plates are then centrifuged immediately at 340 g for 1 minute, after which they are incubated at 37° C. 5% CO2, >98% humidity for 24 h. Luciferase reporter activity is then measured. EC50 values are calculated by using standard methods known in the art.
Luciferase reporter assay: 10 μL of supernatant from the assay is transferred to white 384-plate with flat bottom and squared wells, one pouch of QUANTI-Luc™ Plus is dissolved in 25 mL of water. 100 μL of QLC Stabilizer per 25 mL of QUANTI-Luc™ Plus solution is added. 50 μL of QUANTI-Luc™ Plus/QLC solution per well is then added. Luminescence is measured on a Platereader (e.g., Spectramax I3X (Molecular Devices GF3637001)).
Luciferase reporter activity is then measured. EC50 values are calculated by using standard methods known in the art.
Compound `CCCCc1cccc(NC(=O)Nc2c[nH]nc2-c2ccccc2)c1` [Compound 46] had a pEC50 of 4.00 to 5.30. To `O=C(Nc1c[nH]nc1-c1ccccc1)NC1CCc2ccccc2C1` (stereo not drawn) [Compound 49] belongs 4.00 to 5.30; to `O=C(Nc1ccc(C(F)(F)F)cc1)Nc1c[nH]nc1-c1ccccc1` [Compound 58], 4.00 to 5.30; to `CCCCc1ccc(NC(=O)N2CCCc3n[nH]cc32)cc1` [Compound 60], 4.00 to 5.30.

Turning to `O=C(Nc1ccc(C(F)(F)F)cc1)Nc1cn[nH]c1` [Compound 57], the pEC50 was 4.00 to 5.30. The value for `CCCCc1ccc(NC(=O)Nc2c[nH]nc2-c2ccccc2F)cc1` [Compound 45] was above 5.30; that for `O=C(Nc1ccc(C2CCCCC2)nc1)Nc1c[nH]nc1-c1ccccc1` [Compound 36] was above 5.30. To `O=C(Nc1ccc(C(F)(F)F)cn1)Nc1c[nH]nc1-c1ccccc1` [Compound 39] belongs above 5.30. The value for `O=C(Nc1c[nH]nc1-c1ccccc1)NC1CCC(c2ccccc2)CC1` (stereo not drawn) [Compound 55] was 4.00 to 5.30.

In turn, `CCCCC1CCC(NC(=O)Nc2c[nH]nc2-c2ccccc2)CC1` (stereo not drawn) [Compound 54] gave a pEC50 of 4.00 to 5.30. The value for `CCCCc1ccc(NC(=O)Nc2c[nH]nc2-c2ccccn2)cc1` [Compound 47] was above 5.30; that for `CC(C)(C)C1CCC(NC(=O)Nc2c[nH]nc2-c2ccccc2)CC1` (stereo not drawn) [Compound 48] was 4.00 to 5.30; that for `O=C(Nc1c[nH]nc1-c1ccccc1)NC1CCCC(c2ccccc2)C1` (stereo not drawn) [Compound 51, 3-(3-Phenyl-1H-pyrazol-4-yl)-1-(3-phenylcyclohexyl)urea] was 4.00 to 5.30. To `O=C(Nc1c[nH]nc1-c1ccccc1)NC1CCCc2ccccc21` (stereo not drawn) [Compound 50] belongs 4.00 to 5.30; to `CCCCc1ccc(NC(=O)Nc2c[nH]nc2C)cc1` [Compound 41], 4.00 to 5.30; to `CCCCc1ccc(NC(=O)Nc2cn[nH]c2)cc1` [Compound 52], 4.00 to 5.30. As for `O=C(Nc1c[nH]nc1-c1ccccc1)NC1CCC2(CCC2)CC1` [Compound 40], the pEC50 was 4.00 to 5.30. With `O=C(Nc1cccc(C(F)(F)F)c1)Nc1c[nH]nc1-c1ccccc1` [Compound 56], the pEC50 was 4.00 to 5.30.

Regarding `CCCCc1ccc(NC(=O)Nc2c[nH]nc2-c2ccsc2)cc1` [Compound 42], the pEC50 was above 5.30.

The compound `O=C(Nc1ccc(C(F)(F)F)nc1)Nc1c[nH]nc1-c1ccccc1` [Compound 37] gave a pEC50 of 4.00 to 5.30.

In the case of `CCCCc1ccc(NC(=O)Nc2c[nH]nc2-c2ccccc2)cc1` [Compound 59, l-(4-Butylphenyl)-3-(3-phenyl-1H-pyrazol-4-yl)urea], the pEC50 was above 5.30. To `CCCCc1ccc(NC(=O)Nc2c[nH]nc2-c2nccs2)cc1` [Compound 43] belongs above 5.30; to `CCCCc1ccc(NC(=O)Nc2c[nH]nc2C2CCCCC2)cc1` [Compound 44], 4.00 to 5.30; to `O=C(Nc1ccc(C2CCCCC2)cn1)Nc1c[nH]nc1-c1ccccc1` [Compound 38], 4.00 to 5.30.

The term pEC50 denotes the EC50 on a negative log10 scale, so that one unit is a factor of ten.

The values are drawn from patent US20210236466A1, “COMPOUNDS AND COMPOSITIONS FOR TREATING CONDITIONS ASSOCIATED WITH STING ACTIVITY” (IFM Due, Inc., priority 2018, published 2021).
